Assays:
[1] = tested on: MCF7; test: Antiproliferative activity against human MCF7 cells assessed as cell growth inhibition incubated for 4 hrs by MTT assay; conditions: MCF7, 4 h
[2] = tested on: HepG2; test: Antiproliferative activity against human HepG2 cells assessed as cell growth inhibition incubated for 4 hrs by MTT assay; conditions: HepG2, 4 h
[3] = tested on: Hepatocyte; test: Cytotoxicity against rat hepatocytes assessed as reduction in cell growth for 4 hrs by MTT assay
[4] = tested on: HepG2; test: Cell cycle arrest in human HepG2 cells assessed as accumulation at sub G1 phase at 5.4 uM incubated for 24 hrs by DNA flow cytometric assay (reference value: 1.53 +/- 0.21%); type: functional
[5] = tested on: HepG2; test: Cell cycle arrest in human HepG2 cells assessed as accumulation at G1 phase at 5.4 uM incubated for 24 hrs by DNA flow cytometric assay (reference value: 66.40 +/- 3.21%); type: functional
[6] = tested on: HepG2; test: Cell cycle arrest in human HepG2 cells assessed as accumulation at S phase at 5.4 uM incubated for 24 hrs by DNA flow cytometric assay (reference value: 19.52 +/- 1.55%); type: functional
[7] = tested on: HepG2; test: Cell cycle arrest in human HepG2 cells assessed as accumulation at G2/M phase at 5.4 uM incubated for 24 hrs by DNA flow cytometric assay (reference value: 12.53 +/- 1.48%); type: functional
[8] = tested on: HepG2; test: Induction of apoptosis in human HepG2 cells assessed as viable cells at 5.4 uM incubated for 24 hrs by annexinV-FITC/propidium iodide staining based flow cytometry (reference value: 92.54 +/- 1.64 %); type: functional; conditions: read-out: Activity
[9] = tested on: HepG2; test: Induction of apoptosis in human HepG2 cells assessed as early apoptotic cells at 5.4 uM incubated for 24 hrs by annexinV-FITC/propidium iodide staining based flow cytometry (reference value: 7.22 +/- 0.64 %); type: functional
[10] = tested on: HepG2; test: Induction of apoptosis in human HepG2 cells assessed as late apoptotic cells at 5.4 uM incubated for 24 hrs by annexinV-FITC/propidium iodide staining based flow cytometry (reference value: 0.13 +/- 0.01%); type: functional
[11] = tested on: HepG2; test: Induction of apoptosis in human HepG2 cells assessed as necrotic cells at 5.4 uM incubated for 24 hrs by annexinV-FITC/propidium iodide staining based flow cytometry (reference value: 0.07 +/- 0.01 %); type: functional

IC50 [1] | IC50 [2] | Structure (SMILES) | also measured
68.7 µM | 54.2 µM | Cc1cccc(C)c1NC(=O)c1ccc(NC(=O)CSc2nc3ccccc3n3cnnc23)cc1 | 
41.2 µM | 23.8 µM | O=C(Cn1c(=O)c2nncn2c2ccccc21)Nc1ccc(C(=O)NC2CCCCC2)cc1 | 
61.3 µM | 42.7 µM | O=C(CSc1nc2ccccc2n2cnnc12)Nc1ccc(C(=O)Nc2ccc([N+](=O)[O-])cc2)cc1 | 
12.2 µM | 8.3 µM | O=C(CSc1nc2ccccc2n2cnnc12)Nc1ccc(C(=O)Nc2ccc(Cl)cn2)cc1 | 
57.1 µM | 41.9 µM | O=C(CSc1nc2ccccc2n2cnnc12)Nc1ccc(C(=O)NNC(=O)c2ccccc2)cc1 | 
51.6 µM | 42.5 µM | O=C(Cn1c(=O)c2nncn2c2ccccc21)Nc1ccc(C(=O)Nc2ccc([N+](=O)[O-])cc2)cc1 | 
71.4 µM | 47.6 µM | O=C(Cn1c(=O)c2nncn2c2ccccc21)Nc1ccc(C(=O)Nc2ccc(Cl)cn2)cc1 | 
54.7 µM | 51.5 µM | O=C(CSc1nc2ccccc2n2cnnc12)Nc1ccc(C(=O)Nc2ccccn2)cc1 | 
72.7 µM | 52.4 µM | O=C(CSc1nc2ccccc2n2cnnc12)Nc1ccc(C(=O)NNC(=O)c2ccc([N+](=O)[O-])cc2)cc1 | 
21.5 µM | 17.5 µM | Cc1cccc(C)c1NC(=O)c1ccc(NC(=O)Cn2c(=O)c3nncn3c3ccccc32)cc1 | 
38.2 µM | 31.8 µM | Cc1ccccc1NC(=O)c1ccc(NC(=O)CSc2nc3ccccc3n3cnnc23)cc1 | 
10.3 µM | 6.5 µM | Cc1cccc(NC(=O)c2ccc(NC(=O)Cn3c(=O)c4nncn4c4ccccc43)cc2)c1 | 
9.7 µM | 7.9 µM | O=C(Cn1c(=O)c2nncn2c2ccccc21)Nc1ccc(C(=O)NCc2ccccc2)cc1 | 
23.7 µM | 15.4 µM | O=C(Cn1c(=O)c2nncn2c2ccccc21)Nc1ccc(C(=O)NNC(=O)c2ccccc2)cc1 | 
68.3 µM | 57.5 µM | O=C(Cn1c(=O)c2nncn2c2ccccc21)Nc1ccc(C(=O)Nc2ccccc2)cc1 | 
52.7 µM | 43.5 µM | O=C(CSc1nc2ccccc2n2cnnc12)Nc1ccc(C(=O)NCc2ccccc2)cc1 | 
59.3 µM | 37.8 µM | O=C(CSc1nc2ccccc2n2cnnc12)Nc1ccc(C(=O)NNc2ccccc2)cc1 | 
31.1 µM | 19.7 µM | O=C(Cn1c(=O)c2nncn2c2ccccc21)Nc1ccc(C(=O)NNC(=O)c2ccc([N+](=O)[O-])cc2)cc1 | 
46.7 µM | 23.6 µM | Cc1cccc(NC(=O)c2ccc(NC(=O)CSc3nc4ccccc4n4cnnc34)cc2)c1 | 
8.2 µM | 5.4 µM | O=C(CSc1nc2ccccc2n2cnnc12)Nc1ccc(C(=O)Nc2ccccc2)cc1 | IC50 [3]: 31.3 µM; Activity [4]: 1.32%; Activity [5]: 42.55%; Activity [6]: 30.12%; Activity [7]: 25.99%; viability at 5.4 µM [8]: 69.4%; Activity [9]: 30.27%; Activity [10]: 0.22%; Activity [11]: 0.14%
69.2 µM | 64.8 µM | O=C(CSc1nc2ccccc2n2cnnc12)Nc1ccc(C(=O)NC2CCCCC2)cc1 | 
 | 2.17 µM | CNC(=O)c1cc(Oc2ccc(NC(=O)Nc3ccc(Cl)c(C(F)(F)F)c3)cc2)ccn1 [SORAFENIB] | IC50 [3]: 16.6 µM
